“Also recorded” adds a separate entry of the source.

For one assay, the system named is PBMC. In kind it is cell-based, human.
The next assay relates to Normal subject PBMC. In kind it is cell-based, human.

As to AANIIGILHLILWILDRL [Peptide H7N9-10], in the assay with PBMC, the “% Inhibition by HLA-DR blocking Ab” value was 68% and the “Effect of blocking HLA-DR on peptide-induced T cell response (in words)” value (“Effect of blocking HLA-DR” for short) was “only partially inhibited”.
In the case of AVKLYKKLKREMTFHGA [Peptide H7N9-9], the “% Inhibition by HLA-DR blocking Ab” value with PBMC was determined as 100%. In the assay on Normal subject PBMC, the “suppression of T cell response to pool of H7N9 ICS peptides on co-incubation” value is listed as “did not suppress T cell responses to the pool of H7N9 epitopes”.
In the case of DKLYERVKRQLRENAEED [Peptide H7N9-8], in the assay on PBMC, the “% Inhibition by HLA-DR blocking Ab” value turned out to be 89% and the “Effect of blocking HLA-DR” value is reported as “only partially inhibited”.
As for IVYWKQWLSLKNLTQ [Peptide H7N9-14A], the “% Inhibition by HLA-DR blocking Ab” value in the assay on PBMC is listed as 100%. The “suppression of T cell responses to HA peptides from circulating IAV strains” value (shortened to “suppression of T cell responses”) in the assay with Normal subject PBMC is “Reduced responses to the pool of IAV peptides (1-4)”.
On to KGILGFVFTLTVPSERGLQ [Peptide H7N9-3], for which, in the assay on PBMC, the “% Inhibition by HLA-DR blocking Ab” value is recorded as 97% and the “Effect of blocking HLA-DR” value was “only partially inhibited”.
Regarding “PKYVKSNRLVLATG [IAV-4, reference compound]”, in the assay with PBMC, the “% Inhibition by HLA-DR blocking Ab” value is reported as 96% and the “Effect of blocking HLA-DR” value is listed as “only partially inhibited”.
On to “PKYVKSTKLRLATG [IAV-1, reference compound]”, for which the “% Inhibition by HLA-DR blocking Ab” value with PBMC was 100%.
“PRYVKQNTLKLATG [IAV-3, reference compound]”: in the assay with PBMC, the “% Inhibition by HLA-DR blocking Ab” value worked out at 78% and the “Effect of blocking HLA-DR” value was “only partially inhibited”.
For PRYVKQRSLLLATG [Peptide H7N9-13], the “% Inhibition by HLA-DR blocking Ab” value with PBMC is recorded as 100%. Also, in the assay with Normal subject PBMC, the “suppression of T cell response to pool of H7N9 ICS peptides on co-incubation” value is given as “significantly suppressed T cell response to the pooled peptides; also recorded: significantly decreased” and the “suppression of T cell responses” value is recorded as “significantly suppressed T cell response to IAV-3; also recorded: Reduced responses to the pool of IAV peptides (1-4); also recorded: able to suppress responses to other immunodominant HA peptides from circulating IAV strains”.
As for “PRYVKQSTLKLATG [IAV-2, reference compound]”, in the assay with PBMC, the “% Inhibition by HLA-DR blocking Ab” value is 73% and the “Effect of blocking HLA-DR” value is “only partially inhibited”.
On to QITFMQALQLLLEVE [Peptide H7N9-12], for which the “% Inhibition by HLA-DR blocking Ab” value in the assay on PBMC was determined as 100%.
Same read-out and setting: next, QPEWFRNVLSIAPIMFSNK [Peptide H7N9-4]: 100%.
As to RIDFHWLMLNPNDTVTFS [Peptide H7N9-1], in the assay with PBMC, the “% Inhibition by HLA-DR blocking Ab” value is 46% and the “Effect of blocking HLA-DR” value is recorded as “only partially inhibited”.
Take SRKLLLIVQALRDNLEPG [Peptide H7N9-11]: in the assay with PBMC, the “% Inhibition by HLA-DR blocking Ab” value is reported as “increased response” and the “Effect of blocking HLA-DR” value is listed as “the response increased in the presence of the blocking antibody; also recorded: response was absent except when HLA-DR was blocked”.
As to WKQWLSLKNTLTQGSL [Peptide H7N9-14B], the “suppression of T cell responses” value in the assay on Normal subject PBMC is reported as “Reduced responses to the pool of IAV peptides (1-4)”.
With YAEMKWLLSNTDNAAFPQ [Peptide H7N9-2], in the assay on PBMC, the “% Inhibition by HLA-DR blocking Ab” value came out at 100%.

The record behind these values is US10286063B2 (priority 2015, dated 2019).
